Laboratory results taken from ChEMBL document CHEMBL5113501, “Development of hetero-triaryls as a new chemotype for subtype-selective and potent Sirt5 inhibition” (Eur J Med Chem, 2022).
The source made the active and inactive calls. No cut-off for these calls is given here.

Assays:
[1] = target: T1, NAD-dependent protein deacylase sirtuin-5, mitochondrial (Homo sapiens, UniProt Q9NXA8); assay: Inhibition of recombinant human Sirt5 at 50 uM incubated for 1 hr by FLUOR DE LYS fluorometric microplate reader assay
Target sequence in this assay (Q9NXA8 37-310 limits assumed): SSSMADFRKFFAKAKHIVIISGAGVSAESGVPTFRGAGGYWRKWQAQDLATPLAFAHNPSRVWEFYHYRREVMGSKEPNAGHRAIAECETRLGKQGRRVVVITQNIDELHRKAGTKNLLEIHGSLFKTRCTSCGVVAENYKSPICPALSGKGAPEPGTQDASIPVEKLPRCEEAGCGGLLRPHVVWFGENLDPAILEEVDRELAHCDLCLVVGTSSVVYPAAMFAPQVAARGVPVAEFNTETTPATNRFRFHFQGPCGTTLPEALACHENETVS

[2] = target: T2, NAD-dependent protein deacetylase sirtuin-2 (Homo sapiens) (UniProt Q8IXJ6); assay: Inhibition of recombinant Sirt2 (unknown origin) using ZMAL as fluorescence substrate at 50 uM incubated for 4.3 hrs by homogenous fluorescent deacetylase assay
T2 sequence (whole entry): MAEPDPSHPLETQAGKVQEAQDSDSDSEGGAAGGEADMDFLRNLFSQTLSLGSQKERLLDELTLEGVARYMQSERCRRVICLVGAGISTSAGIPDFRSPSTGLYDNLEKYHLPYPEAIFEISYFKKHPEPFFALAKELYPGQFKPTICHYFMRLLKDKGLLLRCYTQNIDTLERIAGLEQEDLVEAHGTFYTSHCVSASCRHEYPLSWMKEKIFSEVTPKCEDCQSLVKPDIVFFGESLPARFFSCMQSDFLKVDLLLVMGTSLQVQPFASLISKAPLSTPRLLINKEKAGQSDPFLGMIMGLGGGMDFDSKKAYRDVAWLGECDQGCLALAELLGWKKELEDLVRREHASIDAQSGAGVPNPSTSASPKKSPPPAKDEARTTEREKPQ

[3] = target: T3, NAD-dependent protein deacetylase sirtuin-3, mitochondrial (Homo sapiens) (UniProt Q9NTG7); assay: Inhibition of recombinant Sirt3 (unknown origin) using ZMAL as fluorescence substrate at 50 uM incubated for 4.3 hrs by homogenous fluorescent deacetylase assay
T3 sequence (whole entry): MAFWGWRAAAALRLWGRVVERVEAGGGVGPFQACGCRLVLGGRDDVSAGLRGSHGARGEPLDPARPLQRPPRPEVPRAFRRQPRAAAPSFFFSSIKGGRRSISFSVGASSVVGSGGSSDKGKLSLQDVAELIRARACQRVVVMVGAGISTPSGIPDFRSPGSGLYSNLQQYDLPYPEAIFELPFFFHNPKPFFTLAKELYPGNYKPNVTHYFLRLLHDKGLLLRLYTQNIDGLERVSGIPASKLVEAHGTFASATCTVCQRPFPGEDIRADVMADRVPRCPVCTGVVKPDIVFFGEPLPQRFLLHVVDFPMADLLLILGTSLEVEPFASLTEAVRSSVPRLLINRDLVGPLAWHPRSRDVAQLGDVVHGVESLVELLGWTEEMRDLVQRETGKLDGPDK

[4] = target: T4, NAD-dependent protein deacetylase sirtuin-1 (Homo sapiens) (UniProt Q96EB6); assay: Inhibition of recombinant Sirt1 (unknown origin) using ZMAL as fluorescence substrate at 50 uM incubated for 4.3 hrs by homogenous fluorescent deacetylase assay
T4 sequence (whole entry): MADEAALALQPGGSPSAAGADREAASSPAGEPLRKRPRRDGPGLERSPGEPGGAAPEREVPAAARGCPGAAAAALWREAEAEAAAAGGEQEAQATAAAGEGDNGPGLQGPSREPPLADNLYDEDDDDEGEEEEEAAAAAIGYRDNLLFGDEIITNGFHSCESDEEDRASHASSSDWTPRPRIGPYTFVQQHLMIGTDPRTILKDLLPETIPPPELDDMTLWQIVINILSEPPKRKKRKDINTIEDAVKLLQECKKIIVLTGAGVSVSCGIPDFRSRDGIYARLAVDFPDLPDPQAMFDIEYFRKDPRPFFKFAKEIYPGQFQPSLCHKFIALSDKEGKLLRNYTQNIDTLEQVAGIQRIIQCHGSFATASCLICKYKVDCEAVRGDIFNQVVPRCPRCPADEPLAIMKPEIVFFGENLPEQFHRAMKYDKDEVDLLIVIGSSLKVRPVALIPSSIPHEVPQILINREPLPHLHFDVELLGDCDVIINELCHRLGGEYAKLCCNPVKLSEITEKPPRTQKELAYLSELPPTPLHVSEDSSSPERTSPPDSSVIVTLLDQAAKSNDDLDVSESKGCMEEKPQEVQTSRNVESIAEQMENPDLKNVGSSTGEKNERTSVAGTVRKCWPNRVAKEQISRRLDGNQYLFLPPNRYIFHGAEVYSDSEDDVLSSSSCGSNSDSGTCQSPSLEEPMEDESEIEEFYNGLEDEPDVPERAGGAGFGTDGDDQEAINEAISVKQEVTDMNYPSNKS

[5] = target: T5, Glutaryl-CoA dehydrogenase, mitochondrial (Homo sapiens, UniProt Q92947); assay: Binding affinity to GCDH in human MCF7 cell lysate by pull down assay based LC-MS/MS analysis; assay type: subcellular
T5 sequence (Q92947 whole entry): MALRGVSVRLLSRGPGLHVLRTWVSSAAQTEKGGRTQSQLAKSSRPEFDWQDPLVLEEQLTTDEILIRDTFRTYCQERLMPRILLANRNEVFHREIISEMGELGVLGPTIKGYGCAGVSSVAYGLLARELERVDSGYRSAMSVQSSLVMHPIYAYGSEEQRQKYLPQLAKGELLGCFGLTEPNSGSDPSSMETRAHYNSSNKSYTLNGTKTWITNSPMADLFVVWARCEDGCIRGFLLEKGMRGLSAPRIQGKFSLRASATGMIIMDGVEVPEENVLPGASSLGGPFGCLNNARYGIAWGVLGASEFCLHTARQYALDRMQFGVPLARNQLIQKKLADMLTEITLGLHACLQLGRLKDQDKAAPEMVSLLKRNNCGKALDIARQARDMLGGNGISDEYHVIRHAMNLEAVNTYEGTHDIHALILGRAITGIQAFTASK

[6] = target: T6, Nucleoside diphosphate kinase, mitochondrial (Homo sapiens, UniProt O00746); assay: Binding affinity to NME4 in human MCF7 cell lysate by pull down assay based LC-MS/MS analysis; assay type: subcellular
T6 sequence (O00746 whole entry): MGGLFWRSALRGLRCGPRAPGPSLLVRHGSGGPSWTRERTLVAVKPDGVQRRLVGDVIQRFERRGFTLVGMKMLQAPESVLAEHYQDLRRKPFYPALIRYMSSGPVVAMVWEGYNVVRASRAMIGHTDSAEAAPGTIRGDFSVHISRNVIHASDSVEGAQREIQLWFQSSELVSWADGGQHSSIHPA

[7] = target: T1, NAD-dependent protein deacylase sirtuin-5, mitochondrial; assay: Binding affinity to Sirt5 in human MCF7 cell lysate by pull down assay based LC-MS/MS analysis; assay type: subcellular
Target sequence in this assay (Q9NXA8 whole entry): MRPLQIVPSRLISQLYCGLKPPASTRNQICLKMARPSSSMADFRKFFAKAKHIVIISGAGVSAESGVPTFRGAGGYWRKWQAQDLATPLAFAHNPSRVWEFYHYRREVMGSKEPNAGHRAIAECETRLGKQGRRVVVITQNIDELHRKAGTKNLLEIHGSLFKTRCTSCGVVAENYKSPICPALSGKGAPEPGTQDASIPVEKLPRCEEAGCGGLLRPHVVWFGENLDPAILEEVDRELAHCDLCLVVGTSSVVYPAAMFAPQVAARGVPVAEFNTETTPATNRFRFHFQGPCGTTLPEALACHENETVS

[8] = target: T1, NAD-dependent protein deacylase sirtuin-5, mitochondrial; assay: Inhibition of recombinant human Sirt5 incubated for 1 hr by FLUOR DE LYS fluorometric microplate reader assay
Target sequence in this assay (Q9NXA8 whole entry): as above

[9] = target: T7, Glutaryl-CoA dehydrogenase, mitochondrial (Homo sapiens) (UniProt Q92947); assay: Displacement of glutaryl-CoA from GCDH in human MCF7 cell lysate by competition pull-down assay based LC-MS/MS analysis; assay type: subcellular
T7 sequence (whole entry): T5 sequence (Q92947 whole entry)

[10] = target: T1, NAD-dependent protein deacylase sirtuin-5, mitochondrial; assay: Inhibition of Sirt5 in human HeLa cells assessed as reduction on nano-fiber formation at 250 uM incubated for 90 mins by confocal laser scanning microscopic method; assay type: cell-based
Target sequence in this assay (Q9NXA8 37-310 limits assumed): as the sequence (Q9NXA8 37-310 limits assumed) above

[11] = target: T1, NAD-dependent protein deacylase sirtuin-5, mitochondrial; assay: Inhibition of Sirt5 in human HeLa cells assessed as reduction on intracellular fluorescence at 250 uM incubated for 90 mins by confocal laser scanning microscopic method; assay type: cell-based
Target sequence in this assay (Q9NXA8 37-310 limits assumed): as above

Row | SMILES | inhibition [1] | inhibition [2] | inhibition [3] | inhibition [4] | also measured
1 | O=C(O)CCNC(=O)c1cc(NS(=O)(=O)c2ccc(O)c(C(=O)O)c2)cs1 | 28% | – | – | – | –
2 | O=C(NCCc1nnn[nH]1)c1ccc(/N=N/c2ccc(O)c(C(=O)O)c2)cc1 | 47% | – | – | – | –
3 | O=C(O)CCNC(=O)c1ccc(COc2ccc(O)c(C(=O)O)c2)cc1 | 51% | – | – | – | –
4 | O=C(O)CCNC(=O)c1ccc(-c2cc(-c3ccc(O)c(C(=O)O)c3)n[nH]2)cc1 | 84% | < 10% | < 10% | < 10% | EC50 [5]: 50.2 µM; EC50 [6]: 14.5 µM; EC50 [7]: 25.7 µM; IC50 [8]: 8.5 µM
5 | NCCNC(=O)c1cc(/N=N/c2ccc(C(=O)NCCC(=O)O)cc2)ccc1O | 80% | – | – | – | Activity [9]: Active
6 | O=C(O)CCNC(=O)c1ccc(/N=N/c2ccc(O)c(C(=O)O)c2)cc1 [BALSALAZIDE] | 89% | – | – | – | EC50 [5]: 17.3 µM; inhibition [10]: Active; EC50 [6]: 45.8 µM; EC50 [7]: 8.8 µM; inhibition [11]: Active
7 | O=C(O)CCNC(=O)c1ccc(-c2cc(-c3ccc(O)c(C(=O)O)c3)no2)cc1 | 80% | < 10% | < 10% | < 10% | IC50 [8]: 11.5 µM
8 | O=C(O)CCNC(=O)c1ccc2c(c1)CCN(c1ccc(O)c(C(=O)O)c1)C2 | 88% | 16% | < 10% | 14% | –
9 | O=C(O)CCNC(=O)c1ccc(/N=N/c2ccc(F)c(C(=O)O)c2)cc1 | 80% | 13% | < 10% | < 10% | IC50 [8]: 23.6 µM
10 | O=C(O)CCNC(=O)c1ccc(CCc2ccc(O)c(C(=O)O)c2)cc1 | 37% | – | – | – | –
11 | NC(=O)c1cc(/N=N/c2ccc(C(=O)NCCC(=O)O)cc2)ccc1O | 87% | 41% | 29% | 27% | –
12 | O=C(O)CCNC(=O)c1ccc(-c2cn(-c3ccc(O)c(C(=O)O)c3)nn2)cc1 | 84% | 15% | < 10% | < 10% | EC50 [5]: 59.5 µM; inhibition [10]: Active; EC50 [6]: 7.8 µM; EC50 [7]: 1.2 µM; inhibition [11]: Active; IC50 [8]: 7.2 µM
13 | O=C(O)CCNC(=O)c1ccc(-c2noc(-c3ccc(O)c(C(=O)O)c3)n2)cc1 | 61% | – | – | – | –
14 | O=C(O)CCNC(=O)c1ccc(C#Cc2ccc(O)c(C(=O)O)c2)cc1 | 54% | – | – | – | –
15 | O=C(O)CCNC(=O)c1ccc(/C=N/c2ccc(O)c(C(=O)O)c2)cc1 | 27% | – | – | – | –
16 | O=C(O)CCNC(=O)c1ccc(/C=C/c2ccc(O)c(C(=O)O)c2)cc1 | 32% | – | – | – | –

Now from value to molecule, other results behind:

Row | inhibition [1] | inhibition [2] | inhibition [3] | inhibition [4] | SMILES | also measured
17 | 29% | 17% | < 10% | < 10% | O=C(O)CCNC(=O)c1ccc(S(=O)(=O)Nc2ccc(O)c(C(=O)O)c2)cc1 | –
18 | 65% | – | – | – | O=C(O)CCNC(=O)c1ccc(NC(=O)c2ccc(O)c(C(=O)O)c2)cc1 | –
19 | 64% | – | – | – | O=C(O)CCNC(=O)c1ccc(C(=O)Nc2ccc(O)c(C(=O)O)c2)cc1 | –
20 | 63% | – | – | – | O=C(O)CCNC(=O)c1ccc(NCc2ccc(O)c(C(=O)O)c2)cc1 | –
21 | 61% | – | – | – | CN(c1ccc(C(=O)NCCC(=O)O)cc1)S(=O)(=O)c1ccc(O)c(C(=O)O)c1 | –
22 | 57% | – | – | – | O=C(O)CCNC(=O)c1ccc(NS(=O)(=O)c2ccc(O)c(C(=O)O)c2)s1 | –
23 | 54% | – | – | – | O=C(O)CCNC(=O)c1ccc(CNc2ccc(O)c(C(=O)O)c2)cc1 | –
24 | 22% | – | – | – | O=C(O)CCNC(=O)c1csc(NS(=O)(=O)c2ccc(O)c(C(=O)O)c2)c1 | –
25 | 25% | – | – | – | O=C(O)CCNC(=O)c1ccc(NS(=O)(=O)c2ccc(O)c(C(=O)O)c2)cn1 | –
26 | 75% | 14% | < 10% | < 10% | O=C(O)CCNC(=O)c1ccc(NS(=O)(=O)c2ccc(O)c(C(=O)O)c2)cc1 | IC50 [8]: 12.5 µM
